Test systems include HCT-116 colon; RPMI-8226 leukemia; OVCAR-5 ovarian; RXF 393 renal; CCRF-CEM leukemia; SW-620 colon; MCF7 breast; NCI-H522 lung; HL-60(TB) leukemia; UACC-257 melanoma.
Experiment in all cases: NCI tumour cell line growth inhibition, 48 h

Where “and” joins values, the source holds several entries; their conditions need not be identical. Equal entries are not always repeated.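 96-well plates; 48 h exposure; 5 concentrations. Endpoints by linear interpolation between flanking doses. Not reached: highest tested concentration assigned. Abbreviation: GI50, concentration required for 50% inhibition of growth. The concentration for full growth arrest is given as TGI.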 A value given as a limit tells only on which side of the number the result lay.

Consider `CC(C)(/C=C(\C#N)C(=O)N1CCC[C@@H](n2nc(-c3ccc(Oc4ccccc4)cc3F)c3c(N)ncnc32)C1)N1CCN(C2COC2)CC1`, for which the GI50 was 6.31 µM in the experiment with HCT-116 colon; 4.41 µM in the experiment with RPMI-8226 leukemia; 11.3 µM in the experiment with OVCAR-5 ovarian; 2.31 µM with RXF 393 renal; 5.69 µM with CCRF-CEM leukemia; 12.4 µM with SW-620 colon. Moreover, the GI50 with MCF7 breast is 2.57 µM; in the experiment with NCI-H522 lung it was 2.8 µM; in the experiment with HL-60(TB) leukemia it was 5.28 µM; in the experiment on UACC-257 melanoma, 5.58 µM. Besides, the TGI in the experiment with HCT-116 colon was 20.1 µM; in the experiment on RPMI-8226 leukemia, 33.1 µM; in the experiment with OVCAR-5 ovarian it was 24.1 µM; in the experiment on RXF 393 renal it was 7.66 µM; in the experiment with CCRF-CEM leukemia, > 100 µM; in the experiment with SW-620 colon, 31.3 µM. In addition, the TGI in the experiment with MCF7 breast was 12.8 µM; with NCI-H522 lung it was 17.7 µM; with HL-60(TB) leukemia, 32.5 µM; in the experiment with UACC-257 melanoma it was 20.4 µM.

Take `CC(=O)Nc1ccc(-c2csc(Nc3cccc(-c4csc(C)n4)c3)n2)cc1`: the GI50 was 0.697 µM with HCT-116 colon; 0.789 µM in the experiment on RPMI-8226 leukemia; 10 µM with OVCAR-5 ovarian; 2.01 µM in the experiment with RXF 393 renal; > 50 µM in the experiment on CCRF-CEM leukemia; 3.51 µM with SW-620 colon. For the same compound, the GI50 in the experiment with MCF7 breast is 0.68 µM; with NCI-H522 lung, 7.72 µM; in the experiment on HL-60(TB) leukemia, 0.609 µM; with UACC-257 melanoma, 4.63 µM. Also, the TGI with HCT-116 colon was > 26.7 µM; in the experiment with OVCAR-5 ovarian, > 36.8 µM; in the experiment with RXF 393 renal, > 12.9 µM; in the experiment on CCRF-CEM leukemia, > 50 µM; in the experiment with SW-620 colon, 49 µM; in the experiment on MCF7 breast, > 50 µM. For the same compound, the TGI was > 28 µM in the experiment on NCI-H522 lung and 21.5 µM in the experiment with UACC-257 melanoma.

As for `Cc1c(N(C)C)ccc2c(=O)c3cccc(CC(=O)O)c3oc12`, the TGI in the experiment on HCT-116 colon was > 100 µM; in the experiment on RPMI-8226 leukemia, > 100 µM; in the experiment on OVCAR-5 ovarian, > 100 µM; in the experiment with RXF 393 renal, > 100 µM; with CCRF-CEM leukemia, > 100 µM; in the experiment on SW-620 colon, > 53.5 µM. In addition, the TGI in the experiment on MCF7 breast, with NCI-H522 lung, with HL-60(TB) leukemia and in the experiment on UACC-257 melanoma was > 100 µM throughout.

As for `Clc1cc2c(c(CSc3nc4ccccc4n4cccc34)c1)OCOC2`, the GI50 was > 100 µM in the experiment on HCT-116 colon; > 100 µM in the experiment with RPMI-8226 leukemia; > 100 µM with OVCAR-5 ovarian; 15.2 µM in the experiment with RXF 393 renal; > 100 µM in the experiment on CCRF-CEM leukemia; > 100 µM in the experiment with SW-620 colon. In addition, the GI50 with MCF7 breast was 0.501 µM; in the experiment with NCI-H522 lung, 23.4 µM; in the experiment with HL-60(TB) leukemia, > 100 µM; in the experiment with UACC-257 melanoma, > 100 µM. Besides, the TGI was > 100 µM in the experiment on HCT-116 colon; > 100 µM with RPMI-8226 leukemia; > 100 µM with OVCAR-5 ovarian; 61.9 µM with RXF 393 renal; > 100 µM in the experiment on CCRF-CEM leukemia; > 100 µM with SW-620 colon. Moreover, the TGI in the experiment on MCF7 breast, in the experiment on NCI-H522 lung, in the experiment on HL-60(TB) leukemia and with UACC-257 melanoma was > 100 µM each time.

For the compound `CCN(CC)CCNc1nc(N)c(C#N)c(C#N)c1C#N`, the TGI with HCT-116 colon, in the experiment on RPMI-8226 leukemia, with OVCAR-5 ovarian, with RXF 393 renal, with CCRF-CEM leukemia and in the experiment on SW-620 colon was > 10 µM throughout. Further, the TGI in the experiment on MCF7 breast, with NCI-H522 lung, in the experiment with HL-60(TB) leukemia and in the experiment on UACC-257 melanoma was > 10 µM throughout.

Turning to `O=C(Cc1ccc(F)c(Cl)c1)Nc1cc(C2(C(F)(F)F)CC2)nn1CC1CCCCC1`, the GI50 was 3.88 µM in the experiment on HCT-116 colon; 3.06 µM with RPMI-8226 leukemia; 4.44 µM in the experiment on OVCAR-5 ovarian; 2.37 µM in the experiment with RXF 393 renal; 4.72 µM with CCRF-CEM leukemia; 3.92 µM in the experiment with SW-620 colon. In addition, the GI50 was 4.01 µM with MCF7 breast, 2.93 µM in the experiment on NCI-H522 lung, 3.27 µM with HL-60(TB) leukemia and 3.38 µM with UACC-257 melanoma. For the same compound, the TGI in the experiment with HCT-116 colon was > 15 µM; in the experiment on RPMI-8226 leukemia, 9.43 µM; in the experiment on OVCAR-5 ovarian it was > 15 µM; in the experiment with RXF 393 renal, 10.1 µM; in the experiment on CCRF-CEM leukemia it was > 15 µM; in the experiment with SW-620 colon, 14.4 µM. Also, the TGI in the experiment on MCF7 breast is > 15 µM; in the experiment on NCI-H522 lung it was 9.67 µM; in the experiment with HL-60(TB) leukemia it was 7.79 µM; in the experiment on UACC-257 melanoma it was 11.2 µM.

Regarding `COc1ccc2nc3ccccc3c(NCc3ccc(F)cc3)c2c1`, the GI50 in the experiment on HCT-116 colon was 1.75 µM; in the experiment on RPMI-8226 leukemia, 1.24 µM; in the experiment with OVCAR-5 ovarian, 2.25 µM; with RXF 393 renal, 1.13 µM; in the experiment with CCRF-CEM leukemia, 2.06 µM; with SW-620 colon it was 1.63 µM. The GI50 in the experiment on MCF7 breast is 1.17 µM; in the experiment with NCI-H522 lung, 2.06 µM; in the experiment with HL-60(TB) leukemia it was 1.17 µM; with UACC-257 melanoma, 1.8 µM. Also, the TGI in the experiment with HCT-116 colon was 6.5 µM; in the experiment with RPMI-8226 leukemia, 3.06 µM; in the experiment on OVCAR-5 ovarian, 8.21 µM; in the experiment on RXF 393 renal, 3.1 µM; in the experiment with CCRF-CEM leukemia, 23.4 µM; in the experiment on SW-620 colon, 7.03 µM. Further, the TGI amounted to 3.52 µM with MCF7 breast, 9.38 µM with NCI-H522 lung, 2.8 µM in the experiment with HL-60(TB) leukemia and 6.68 µM with UACC-257 melanoma.

`O=C(Nc1cc(C(F)(F)F)cc(C(F)(F)F)c1)c1cc(Cl)ccc1O`: the GI50 was 0.213 µM and 0.238 µM with HCT-116 colon; 0.116 µM and 0.155 µM in the experiment on RPMI-8226 leukemia; 0.305 µM and 0.357 µM in the experiment on OVCAR-5 ovarian; 0.245 µM and 0.19 µM with RXF 393 renal; 0.237 µM and 0.378 µM in the experiment on CCRF-CEM leukemia; 0.316 µM and 0.312 µM in the experiment with SW-620 colon. Also, the GI50 is 0.302 µM and 0.269 µM with MCF7 breast; 0.186 µM and 0.214 µM in the experiment with NCI-H522 lung; 0.201 µM and 0.239 µM in the experiment with HL-60(TB) leukemia; 0.196 µM and 0.194 µM in the experiment with UACC-257 melanoma. For the same compound, the TGI is 0.999 µM and 1.16 µM in the experiment with HCT-116 colon; 0.578 µM and 0.713 µM with RPMI-8226 leukemia; > 5.03 µM and 15.9 µM in the experiment with OVCAR-5 ovarian; 1.16 µM and 0.673 µM in the experiment with RXF 393 renal; 1.3 µM and 7.79 µM in the experiment on CCRF-CEM leukemia; 3.26 µM and 10.4 µM in the experiment on SW-620 colon. Also, the TGI with MCF7 breast was > 10 µM and 5.26 µM; in the experiment on NCI-H522 lung, 0.818 µM and 1.9 µM; in the experiment with HL-60(TB) leukemia it was 1.69 µM and 0.641 µM; in the experiment on UACC-257 melanoma, 0.75 µM and 1.21 µM.

These data come from PubChem BioAssay (NCI).
